Drawing on the NIST ThermoML archive (doi:10.1016/j.jct.2009.07.010), this text covers mass density for one molecule.

The structures appear in SMILES notation. Numbers after ± are expanded uncertainties.

For this series the following is noted: 298.15 K; 101.33 kPa; Liquid; Vibrating tube method.

By mass density is commonly meant mass per unit of volume. With `CCn1cc[n+](C)c1.O=S(=O)([O-])C(F)(F)F` [1-ethyl-3-methylimidazolium trifluoromethanesulfonate], the mass density came out at 1387.07 ± 2.2 kg/m3.
